{"source": "patent US20090232916A1", "about": "“FOOD PRODUCTS FOR DIABETICS” (priority 2004, published 2009)", "origin": "cited, not measured here", "tested_on": "IGT subjects", "settings": "over a period of three years", "data": [{"smiles": "CN(C)C(=N)N=C(N)N", "note": "[metformin]", "values": [{"measurement": "reduction of the risk of progressing from IGT to diabetes", "result": 31, "unit": "%"}]}]}
